For one test, the system named is P. falciparum 3D7. Description: P. falciparum 3D7 growth inhibition assay (SYBR green). The test is classed as cell-based. Particulars: Plasmodium falciparum, 72 h incubation, 50% growth inhibition, read-out: Pf 3D7 EC50. How it is done:
The ability of triazolopyrimidine derivatives according to the invention to kill P. falciparum parasites and/or to inhibit its proliferation is assayed through their ability to inhibit Plasmodium falciparum growth. The growth inhibition assay is as follows: P. falciparum 3D7 cells were grown in Gibco-Invitrogen RPMI-1640 supplemented with 2% (w/v) red blood cells (RBCs) and either 20% human type A+ plasma (Desjardins et al., 1979, Antimicrob Agents Chemother. 16, 710-718) or with Gibco-Invitrogen 0.5% Albumax I (Coteron et al., 2011, J. Med. Chem., 54, 5540-5561). Serial dilutions of compound stocks were prepared in 100% DMSO at 200× the final concentration, followed by generation of 20× stocks in media. Cell growth was monitored by the SYBR green method as described (Deng, et al., 2014. J. Med. Chem., 57, 5381-539). Parasites (0.19 ml of 0.5% parasitemia, 0.5% HCT) were plated into 96-well microtiter plates containing 10 μL compound or DMSO control (final DMSO concentration of 0.5%). Non-parasitized RBCs (0.5% HCT) were used as a control to determine background fluorescence. After 72 h of incubation parasitized RBCs were quantitated by the SYBR Green method. 2× SYBR Green I solution (20 μL) in 1× PBS was mixed with 20 μL parasites in 96-well plates, incubated for 20 min, and after which 160 μL of 1× PBS was added. Fluorescence was detected using a BD Biosciences Acurri C6 flow cytometer and events recorded within gates that encompassed all asexual growth stages of the P. falciparum intraerythrocytic life cycle. A minimum 50,000 total events were recorded per well. Background events determined from non-parasitized RBC controls were subtracted from final counts.

Test [1] has as its system P. falciparum Pf3D70087/N9. Description: SCID mouse P. falciparum in vivo efficacy model. The arrangement: species or system P. falciparum in NOD-scid IL-2Rγnull (NSG) mice. Particulars: oral, starting day 3 post infection, NSG mice engrafted with human erythrocytes. The procedure:
Briefly, NOD-scid IL-2Rγnull (NSG) mice (Jackson Laboratory, USA) (23-36 g) engrafted with human erythrocytes as described were infected with 20×10^6 P. falciparum Pf3D70087/N9) generated in GlaxoSmithkline Tres Cantos (Spain) by intravenous injection. Compounds were administered orally in vehicle (saline solution for Chloroquine; 0.5% w/v sodium carboxymethylcellulose, 0.5% v/v benzyl alcohol, 0.4% v/v Tween 80 in water for triazolopyrimidine analogs). Compounds were administered at target doses ranging from 0.5 to 75 mg/kg (free base equivalent) starting on day 3 post infection. Formulation concentrations were measured to obtain the actual doses administered. Parasitemia was monitored by flow cytometry and the effective dose (ED90) was calculated as described in Jimenez-Diaz, 2009, Antimicrobial agents and chemotherapy, 53, 4533-4536.

The subject of test [2] is P. falciparum FC27 lab lines. Description: Ex vivo schizont maturation assay, lab line. The test is classed as cell-based. Particulars: Plasmodium falciparum; ex vivo schizont maturation, 35-56 hrs; FC27 chloroquine sensitive lab strain; read-out: P. falciparum FC27 lab lines IC50. The procedure:
To assess comparative activity between P. falciparum and P. vivax strains compounds were tested in an ex vivo parasite assay using Plasmodium isolates from patients who visited clinics in Timika (Papua, Indonesia). Parasites in this region are resistant to standard anti-malarials such as chloroquine. P. vivax can not be cultivated in vitro so the ex vivo assay is the only method to evaluate drug sensitivity. Patients with parasitemia between 2000 and 80,000 ul^−1 were eligible for recruitment into the study. Blood was collected by venipuncture, host white blood cells were removed and packed infected red blood cells were used for the ex vivo studies. Drug susceptibility was measured as previously described (Russell et al., 2008, Antimicrobial Agents Chemother., 52, 1040-1045; Marfurt et al., 2011, Antimicrobial Agents Chemother., 55, 961-966; Marfurt et al., 2011, Antimicrobial Agents Chemother., 55, 4461-4464). Briefly two hundred μl of a 2% hematocrit blood mixture, consisting of RPMI 1640 medium plus 10% AB+ human serum (P. falciparum) or McCoy's 5A medium plus 20% AB+ human serum (P. vivax) was added to each well of pre-dosed drug plates containing serial 2-fold dilutions of the anti-malarial compound. A candle jar was used to mature parasites at 37° C. for 35-56 hrs. […] Thick blood films made from each well were stained with 5% Giemsa for 30 min and examined microscopically. The number of schizonts per 200 asexual stage parasites was determined and normalized to the control well. Data were analyzed by nonlinear regression (WinNonLn 4.1) to determine the IC50 using the inhibitory sigmoid Emax model.
Drug plate quality was assured by running schizont maturation assays (two independent experiments) with the chloroquine-resistant strain K1 and the chloroquine-sensitive strain FC27. For microscopy slide reading QC, two randomly selected drugs per isolate were read by a second microscopist. […] If necessary, discrepant results were resolved by a third reading by an expert microscopist.

Regarding `Cc1cc(Nc2ccc(C(F)(F)F)nc2)n2nc(C(C)(F)F)nc2n1` [Compound (1), 2-(1,1-difluoroethyl)-5-methyl-N-(6-(trifluoromethyl)pyridin-3-yl)-[1,2,4]triazolo[1,5-a]pyrimidin-7-amine], in the test on P. falciparum 3D7, the EC50 worked out at 0.011 µM. Besides, in test [1], the ED90 is given as 2.6 mg/kg per day. The IC50 in test [2] was found to be 0.292 µM.

Source of the values: patent publication US20180065968A1, “NEW SUBSTITUTED TRIAZOLOPYRIMIDINES AS ANTI-MALARIAL AGENTS” (BOARD OF REGENTS OF THE UNIVERSITY OF TEXAS SYSTEM, priority 2015, published 2018).
